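Compound exposure: 48 hours, 5 concentrations, 96-well plates. At the GI50, growth is halved. Definition used: TGI = concentration required for complete inhibition of growth.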

Results on seven compounds are retold here after PubChem BioAssay (NCI).

Test systems include HOP-92 NSCLC; HCT-15 colon; LOX IMVI melanoma; SK-MEL-5 melanoma; BT-549 breast; A549 NSCLC; HCC-2998 colon; MALME-3M melanoma; HT29 colon; CCRF-CEM leukemia.
Assay in all cases: growth of human tumour cells (NCI), 48 h

Regarding `O=C1NCc2ccc3c(-c4cccc(Cl)c4)c[nH]c3c21`, the GI50 with HOP-92 NSCLC is 3.22 µM; in the test with HCT-15 colon, 0.163 µM; in the test with LOX IMVI melanoma, 0.279 µM; in the test with SK-MEL-5 melanoma, 0.269 µM; with BT-549 breast it was 0.245 µM; in the test with A549 NSCLC, 0.438 µM. The GI50 in the test on HCC-2998 colon is 0.734 µM; in the test with MALME-3M melanoma, 0.191 µM; in the test with HT29 colon it was 0.18 µM; in the test on CCRF-CEM leukemia, 0.192 µM. Moreover, the TGI with HOP-92 NSCLC was greater than 50 µM; in the test on HCT-15 colon, greater than 50 µM; with LOX IMVI melanoma it was greater than 50 µM; in the test with SK-MEL-5 melanoma, greater than 20.4 µM; in the test with BT-549 breast, greater than 45.7 µM; in the test with A549 NSCLC it was greater than 50 µM. Moreover, the TGI with HCC-2998 colon is greater than 22.9 µM; with MALME-3M melanoma, greater than 50 µM; with HT29 colon, greater than 50 µM; with CCRF-CEM leukemia, greater than 50 µM.
Regarding `COc1cc(/C(C#N)=C/c2ccc3c(c2OC)OCO3)cc2c1OCO2`, the GI50 in the test with HOP-92 NSCLC is 0.211 µM; in the test on HCT-15 colon, 0.0748 µM; in the test with LOX IMVI melanoma, 0.07 µM; in the test with SK-MEL-5 melanoma it was 0.0546 µM; in the test with BT-549 breast it was 0.669 µM; in the test on A549 NSCLC, 0.0879 µM. For the same compound, the GI50 in the test with HCC-2998 colon is 0.182 µM; in the test with MALME-3M melanoma it was 0.264 µM; in the test with HT29 colon it was 0.0379 µM; in the test on CCRF-CEM leukemia, 0.0601 µM. The TGI was 15.7 µM in the test on HOP-92 NSCLC; greater than 100 µM with HCT-15 colon; 20.3 µM with LOX IMVI melanoma; greater than 46.4 µM in the test on SK-MEL-5 melanoma; 29.3 µM in the test on BT-549 breast; greater than 100 µM in the test with A549 NSCLC. Further, the TGI in the test with HCC-2998 colon was found to be 10.8 µM; with MALME-3M melanoma it was 41.1 µM; in the test on HT29 colon, 1.04 µM; in the test with CCRF-CEM leukemia it was 4.62 µM.
Turning to `COc1cc(C2C=C(c3cccc(NC(C)=O)c3)Nc3ncnn32)cc(OC)c1OC` (centres undefined), the TGI is greater than 65.1 µM in the test on HOP-92 NSCLC; greater than 100 µM in the test on HCT-15 colon; greater than 100 µM in the test on LOX IMVI melanoma; 22.2 µM in the test with SK-MEL-5 melanoma; greater than 100 µM in the test with BT-549 breast; greater than 100 µM in the test with A549 NSCLC. Further, the TGI in the test on HCC-2998 colon is 0.489 µM; in the test on MALME-3M melanoma it was greater than 100 µM; in the test with HT29 colon, greater than 100 µM; with CCRF-CEM leukemia, 4.16 µM. The GI50 in the test on HCT-15 colon was 2.02 µM; with LOX IMVI melanoma it was 0.596 µM; in the test with SK-MEL-5 melanoma it was 0.397 µM; in the test with BT-549 breast, 1.07 µM; in the test with A549 NSCLC, 6.68 µM; in the test with HCC-2998 colon, 0.0566 µM. Also, the values for the GI50 in the test with MALME-3M melanoma, with HT29 colon and with CCRF-CEM leukemia were 0.389 µM, 1.38 µM and 0.72 µM, respectively.
For the compound `COc1ccc2c(c1)/C(=C\c1c(C)nc3sc(C)cn13)C(=O)N2C`, the GI50 in the test on HOP-92 NSCLC is 7.42 µM; with HCT-15 colon, 2.73 µM; with LOX IMVI melanoma it was 4.4 µM; with SK-MEL-5 melanoma it was 2.15 µM; with BT-549 breast, 6.01 µM; in the test on A549 NSCLC, 30.7 µM. The GI50 is 1.37 µM in the test with HCC-2998 colon, 7.09 µM in the test on MALME-3M melanoma, 3.27 µM in the test with HT29 colon and 5.46 µM in the test on CCRF-CEM leukemia. Besides, the TGI was 37 µM in the test on HOP-92 NSCLC; 40.3 µM in the test with HCT-15 colon; 26.2 µM in the test on LOX IMVI melanoma; 5.49 µM with SK-MEL-5 melanoma; 49.7 µM in the test with BT-549 breast; greater than 100 µM in the test with A549 NSCLC. The TGI was 4.68 µM in the test with HCC-2998 colon, 73.3 µM with MALME-3M melanoma, 19.2 µM with HT29 colon and greater than 100 µM in the test with CCRF-CEM leukemia.
As for `COc1ccc(-c2nn3ncccc3c2-c2ccnc(Nc3ccc(Cl)c(C(F)(F)F)c3)n2)cc1`, the GI50 with HOP-92 NSCLC is 4.54 µM; in the test with HCT-15 colon, 9.97 µM; in the test on LOX IMVI melanoma it was 8.95 µM; with SK-MEL-5 melanoma it was 7.16 µM; with BT-549 breast it was 10.2 µM; in the test on A549 NSCLC it was 10.8 µM. The GI50 in the test with HCC-2998 colon was 6.42 µM; in the test with MALME-3M melanoma it was 10.8 µM; in the test with HT29 colon, 9.88 µM; with CCRF-CEM leukemia it was 8.37 µM. Also, the TGI with HOP-92 NSCLC was 19.8 µM; with HCT-15 colon, greater than 25 µM; in the test on LOX IMVI melanoma, greater than 25 µM; with SK-MEL-5 melanoma, greater than 22 µM; in the test with BT-549 breast it was greater than 25 µM; in the test with A549 NSCLC, greater than 25 µM. Besides, the TGI with HCC-2998 colon was 20.8 µM; in the test with MALME-3M melanoma it was greater than 25 µM; in the test on HT29 colon, greater than 25 µM; in the test with CCRF-CEM leukemia it was greater than 25 µM.
With `C=CCn1c2c(c3ccccc3c1=O)C(=O)c1ccccc1-2`, the TGI with HOP-92 NSCLC, with HCT-15 colon, in the test on LOX IMVI melanoma, in the test on SK-MEL-5 melanoma, in the test on BT-549 breast and in the test with A549 NSCLC was greater than 100 µM each time. The TGI with HCC-2998 colon, in the test with MALME-3M melanoma, in the test on HT29 colon and in the test with CCRF-CEM leukemia was greater than 100 µM each time.
Take `CCOC(=O)c1ccc(NC(=O)N2CC(C)OC(C)C2)cc1` (centres undefined): the GI50 in the test with HOP-92 NSCLC, with HCT-15 colon, in the test with LOX IMVI melanoma, in the test on SK-MEL-5 melanoma, with BT-549 breast and in the test with A549 NSCLC was greater than 100 µM in each case. Further, the GI50 with HCC-2998 colon, in the test on MALME-3M melanoma, in the test with HT29 colon and in the test with CCRF-CEM leukemia was greater than 100 µM throughout. The TGI with HOP-92 NSCLC, with HCT-15 colon, in the test with LOX IMVI melanoma, in the test with SK-MEL-5 melanoma, with BT-549 breast and in the test on A549 NSCLC was greater than 100 µM in each case. For the same compound, the TGI in the test on HCC-2998 colon, in the test with MALME-3M melanoma, in the test with HT29 colon and in the test on CCRF-CEM leukemia was greater than 100 µM each time.
